What was measured:
human SGLT1 = biological target: T1, human SGLT1 (Homo sapiens, UniProt P13866); assay: Cell-based assay for sodium-dependent glucose transport (14C-AMG uptake), CHOK-SGLT1; conditions: 10 uM compound, CHO-K1 cells stably expressing human SGLT1, Na-dependent 14C-AMG uptake; for inhibition at 10 µM: read-out: CHOK-SGLT1 % Inh (10 uM)
T1 construct: expressed in transfected cells
T1 sequence (P13866 1-664): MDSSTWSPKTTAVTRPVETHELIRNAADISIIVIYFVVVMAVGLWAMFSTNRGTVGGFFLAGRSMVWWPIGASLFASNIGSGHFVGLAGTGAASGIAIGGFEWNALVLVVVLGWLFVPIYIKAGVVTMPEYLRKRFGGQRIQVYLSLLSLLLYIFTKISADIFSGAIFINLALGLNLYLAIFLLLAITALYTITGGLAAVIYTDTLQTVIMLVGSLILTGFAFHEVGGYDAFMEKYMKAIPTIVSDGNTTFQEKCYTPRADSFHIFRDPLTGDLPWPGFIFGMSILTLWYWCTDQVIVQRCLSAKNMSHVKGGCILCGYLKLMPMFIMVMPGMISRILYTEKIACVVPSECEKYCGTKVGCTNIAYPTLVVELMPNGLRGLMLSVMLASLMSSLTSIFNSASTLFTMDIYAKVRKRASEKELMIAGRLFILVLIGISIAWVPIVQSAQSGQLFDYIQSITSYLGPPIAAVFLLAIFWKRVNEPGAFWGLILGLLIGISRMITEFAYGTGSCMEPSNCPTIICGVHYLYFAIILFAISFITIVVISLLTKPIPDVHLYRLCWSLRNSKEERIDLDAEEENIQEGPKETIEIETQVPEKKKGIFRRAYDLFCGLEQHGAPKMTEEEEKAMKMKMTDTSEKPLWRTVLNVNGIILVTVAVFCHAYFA
Method: (§1) Cloning of the human SGLT1 and human SGLT2 cDNAs and construction of the mammalian expression vector: The human SGLT1 cDNA (Genbank M24847) was cloned from human small intestine. Human SGLT2 cDNA (Genbank M95549) was cloned from human kidney. Both full cDNAs were subcloned into pcDNA and sequenced to verify the integrity of the construct. Generation of CHO-K1 cells stably expressing human SGLT1 or human SGLT2: Transfection of CHO-K1 cells was performed using DMRIE-C reagent (Life Technologies, Gaithersburg, Md.). Transfectants were then selected in the presence of the antibiotic G418 (Gibco-BRL, Grand Island, N.Y.) at 400 μg/ml. Individual clones were then characterized using the functional assay described below. Cell-based assay for sodium-dependent glucose transport: Cell lines stably expressing human SGLT1 or SGLT2 were then used for functional analysis of Na^+-dependent glucose uptake. Briefly, cells were plated at a density of 65,000 cells per well in a 96-well plate and allowed to grow for 48 hours. Cells were subsequently washed one time with Assay Buffer (50 mM HEPES pH 7.4, 20 mM Tris, 5 mM KCl, 1 mM MgCl2, 1 mM CaCl2 and 137 mM NaCl) and treated with compound in the absence or presence of NaCl for 15 minutes. Cells were then labeled with ^14C-α-methylglucopyranoside (AMG, Sigma, St. Louis, Mo.), a non-metabolizable glucose analog specific for sodium-dependent glucose transporters as previously described (Peng, H. and Lever J. E. Post-transcriptional regulation of Na^+/glucose cotransporter (SGLT1) gene expression in LLC-PK1 cells. J Biol Chem 1995; 270:20536-20542.). After 2 hours the labelled cells were washed three times with ice-cold PBS. After aspiration, cells were solubilized using Microscint 20 (Packard, Meriden, Conn.) and Na-dependent ^14C-AMG uptake was quantified by measuring radioactivity. Plates were counted in a TopCount (Packard, Meriden, Conn.). Results are reported as the % inhibition or IC50 value from a representative experiment. Variability for the functional assay was typically within 20%.

human SGLT2 = biological target: T2, human SGLT2 (Homo sapiens, UniProt P31639); assay: Cell-based assay for sodium-dependent glucose transport (14C-AMG uptake), CHOK-SGLT2; conditions: for IC50: CHO-K1 cells stably expressing human SGLT2, Na-dependent 14C-AMG uptake, read-out: CHOK-SGLT2 IC50 (uM) ± SEM; for inhibition at 10 µM: CHO-K1, read-out: CHOK-SGLT2 % Inh. @ 10 μM
T2 construct: expressed in transfected cells
T2 sequence (P31639 1-672): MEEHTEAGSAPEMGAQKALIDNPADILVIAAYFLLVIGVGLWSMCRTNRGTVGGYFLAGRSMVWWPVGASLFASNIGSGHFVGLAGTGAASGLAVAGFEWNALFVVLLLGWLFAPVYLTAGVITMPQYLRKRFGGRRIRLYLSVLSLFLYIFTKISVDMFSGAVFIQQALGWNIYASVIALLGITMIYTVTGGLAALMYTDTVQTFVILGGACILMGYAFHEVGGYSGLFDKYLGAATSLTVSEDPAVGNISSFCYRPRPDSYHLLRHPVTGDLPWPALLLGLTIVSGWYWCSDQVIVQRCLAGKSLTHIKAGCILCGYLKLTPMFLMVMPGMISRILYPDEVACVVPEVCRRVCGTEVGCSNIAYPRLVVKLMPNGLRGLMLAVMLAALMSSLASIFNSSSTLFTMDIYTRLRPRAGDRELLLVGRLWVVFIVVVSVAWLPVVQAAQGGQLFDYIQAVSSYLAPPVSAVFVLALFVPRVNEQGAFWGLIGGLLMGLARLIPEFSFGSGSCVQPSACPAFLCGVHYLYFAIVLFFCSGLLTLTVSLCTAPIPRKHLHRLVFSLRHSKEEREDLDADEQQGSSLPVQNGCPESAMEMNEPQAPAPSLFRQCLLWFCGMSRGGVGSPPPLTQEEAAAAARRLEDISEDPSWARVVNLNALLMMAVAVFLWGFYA
Method: as §1, with “experiment.” for “experiment. Variability for the functional assay was typically within 20%.”

| SMILES | inhibition at 10 µM (human SGLT1) | IC50 (human SGLT2) | inhibition at 10 µM (human SGLT2) | CHOK-SGLT1 % Inh (10 uM) (human SGLT1) |
| --- | --- | --- | --- | --- |
| Cc1cc(O[C@@H]2O[C@H](CO)[C@@H](O)[C@H](O)[C@H]2O)c2c(CCc3ccc4c(c3)CCO4)n[nH]c2c1 [Example 1, 2-{3-[2-(2,3-Dihydro-benzofuran-5-yl)-ethyl]-6-methyl-1H-indazol-4-yloxy}β3-D-glucopyranoside] | 48% | 0.458 ± 0.061 µM |  |  |
| CC(=O)OC[C@H]1O[C@@H](Oc2cc(C)cc3[nH]nc(CCc4ccc5c(c4)CCO5)c23)[C@H](O)[C@@H](O)[C@@H]1O [Example 2, 2-{3-[2-(2,3-Dihydro-benzofuran-5-yl)-ethyl]-6-methyl-1H-indazol-4-yloxy}-6-O— acetyl-β-D-glucopyranoside] | 14% |  | 69% |  |
| Cc1cc(O[C@@H]2O[C@H](CO)[C@@H](O)[C@H](O)[C@H]2O)c2c(CCc3ccc4c(c3)OCCO4)n[nH]c2c1 [Example 3, 2-{3-[2-(2,3-Dihydro-benzo[1,4]dioxin-6-yl)-ethyl]-6-methyl-1H-indazol-4-yloxy}β-D-glucopyranoside] |  | 1.59 ± 0.025 µM |  | inactive |
| Cc1cc(OC2OC(CO)C(O)C(O)C2O)c2c(CCc3ccc4ccccc4c3)n[nH]c2c1 [Example 4, 2-[6-Methyl-3-(2-naphthalen-2-yl-ethyl)-1H-indazol-4-yloxy]-β-D-glucopyranoside] | 18% | 1.95 ± 0.816 µM |  |  |
| Cc1cc(OC2OC(CO)C(O)C(O)C2O)c2c(CCc3ccc4c(c3)CCCC4)n[nH]c2c1 [Example 5, 2-{6-Methyl-3-[2-(5,6,7,8-tetrahydro-naphthalen-2-yl)-ethyl]-1H-indazol-4-yloxy}-β-D-glucopyranoside] |  | 3.25 ± 0.461 µM |  | inactive |
| COc1ccc2cc(CCc3n[nH]c4cc(C)cc(OC5OC(CO)C(O)C(O)C5O)c34)ccc2c1 [Example 6, 2-{3-[2-(6-Methoxy-naphthalen-2-yl)-ethyl]-6-methyl-1H-indazol-4-yloxy}-β-D-glucopyranoside] | 7% | 1 µM |  |  |
| COC1CCc2cc(CCc3n[nH]c4cc(C)cc(OC5OC(CO)C(O)C(O)C5O)c34)ccc2C1 [Example 7, 2-{3-[2-(6-Methoxy-5,6,7,8-tetrahydro-naphthalen-2-yl)-ethyl]-6-methyl-1H-indazol-4-yloxy}β-D-glucopyranoside] |  |  | 43% | inactive |
| COc1ccc2c(c1)CCC(CCc1n[nH]c3cc(C)cc(OC4OC(CO)C(O)C(O)C4O)c13)C2 [Example 8, 2-{3-[2-(6-Methoxy-1,2,3,4-tetrahydro-naphthalen-2-yl)-ethyl]-6-methyl-1H-indazol-4-yloxy}-β-D-glucopyranoside] |  |  | 67% | inactive |
| COc1ccc(CCc2n[nH]c3cc(C)cc(OC4OC(CO)C(O)C(O)C4O)c23)cc1 [Example 9, 2-{3-[2-(4-Methoxy-phenyl)-ethyl]-6-methyl-1H-indazol-4-yloxy}β-D-glucopyranoside] | 11% | 3.05 ± 0.319 µM |  |  |
| CCOc1ccc(CCc2n[nH]c3cc(C)cc(OC4OC(CO)C(O)C(O)C4O)c23)cc1 [Example 10, 2-{3-[2-(4-Ethoxy-phenyl)-ethyl]-6-methyl-1H-indazol-4-yloxy}β-D-glucopyranoside] | 5% | 2 ± 0.071 µM |  |  |
| Cc1cc(OC2OC(CO)C(O)C(O)C2O)c2c(CCc3ccc(Cl)cc3)n[nH]c2c1 [Example 11, 2-{3-[2-(4-Chloro-phenyl)-ethyl]-6-methyl-1H-indazol-4-yloxy}-β-D-glucopyranoside] | 12% |  | 66% |  |
| Cc1cc(OC2OC(CO)C(O)C(O)C2O)c2c(CCc3ccc(C(F)(F)F)cc3)n[nH]c2c1 [Example 12, 2-{3-[2-(4-Trifluoromethyl-phenyl)-ethyl]-6-methyl-1H-indazol-4-yloxy}β-D-glucopyranoside] |  |  | 36% | inactive |
| Cc1cc(O[C@@H]2OC(CO)[C@@H](O)[C@H](O)[C@H]2O)c2c(CCc3ccc4occc4c3)n[nH]c2c1 (stereo partly drawn) [Example 13, 2-[3-(2-Benzofuran-5-yl-ethyl)-6-methyl-1H-indazol-4-yloxy]-β-D-glucopyranoside] | 52% |  |  |  |
